According to patent US20120258980A1, “Antibacterial Agent for Drug-Resistant Bacteria, Method for Screening for Same, and Use of Same” (priority 2009, published 2012):
Read-outs that look alike come from different tables or passages of the source.

Tests used:
VRSA clinical isolates = details: based on NARSA, cited from earlier work
[1] = tested on: MRSA, CA-MRSA and MSSA of Staphylococcus aureus; test: MIC measurement, Test Example 4 (MRSA, CA-MRSA and MSSA strains); assay type: cell-based
Protocol: (§1) Each of the bacterial strains listed in Table 1-1 was shake-cultured at 37° C. overnight in 4 mL of a medium (Tryptical Soy Broth: TSB, product of Becton Dickinson and Company). FDA209P was used as a control.
(§2) After completion of culturing, the resultant culture was suspended in a cation-adjusted Mueller Hinton Broth (CAMHB, product of Becton Dickinson and Company). Then, the obtained bacterial culture was adjusted in absorbance with the CAMHB so that the absorbance at 578 nm of the bacterial culture was adjusted to 0.3 measured by an absorption spectrometer. In addition, the resultant bacterial culture was 500-fold diluted with the CAMHB.
(§3) Each of the 500-fold diluted, pre-cultured bacterial cultures was added at 50 μL/well to the CAMHB containing the quinolones and the nybomycins at various concentrations (50 μL/well), followed by statically culturing at 37° C. overnight.
(§4) After completion of culturing, the growth of the bacteria was visually determined based on turbidity to measure MIC in each bacterial strain.
Glycopeptides, imipenem, quinolones and nybomycins were studied for antibacterial activity against the bacterial strains listed in Table 2-1; i.e., MRSA, CA-MRSA and MSSA of Staphylococcus aureus.

[2] = tested on: VISA clinical isolates of MRSA (VI-MRSA) and of MSSA (VI-MSSA); test: microbe, parasite or virus in culture; assay type: cell-based, Staphylococcus aureus
Protocol: as §1, §2, §3, §4
Here, the glycopeptides used were VCM and TEIC. The β-lactam used was OXA.

For teicoplanin, the MIC (VRSA clinical isolates; VRS1, VRSA, Michigan) is listed as 64 µg/mL, the MIC (VRSA clinical isolates; VRS2, VRSA, Pennsylvania) is listed as 8 µg/mL and the MIC (VRSA clinical isolates; VRS3, VRSA, New York) is listed as 16 µg/mL. For the same substance, the MIC (VRSA clinical isolates; VRS4, VRSA, New York) was 32 µg/mL, the MIC (VRSA clinical isolates; VRS5, VRSA, Michigan) was 128 µg/mL and the MIC (VRSA clinical isolates; VRS6, VRSA, Michigan) was greater than 256 µg/mL. For the same substance, the MIC (VRSA clinical isolates; VRS7, VRSA, Michigan) was greater than 256 µg/mL, the MIC ([1]; ATCC 29213, MSSA) was 2 µg/mL and the MIC ([1]; COL, MRSA) was 2 µg/mL. It also gave an MIC ([1]; FDA209P, MSSA) of 0.06 µg/mL, an MIC ([1]; ISA12-1, MRSA) of 1 µg/mL and an MIC ([1]; ISA12-2, MRSA) of 1 µg/mL. It also gave an MIC ([1]; ISA35-1, MRSA) of 2 µg/mL, an MIC ([1]; ISA37-1, MSSA) of 1 µg/mL and an MIC ([1]; ISA49-1, MSSA) of 0.5 µg/mL. For the same substance, the MIC ([1]; ISA51-1, MSSA) was 0.5 µg/mL, the MIC ([1]; ISA56-3, MRSA) was 4 µg/mL and the MIC ([1]; ISA58-1, MRSA) was 2 µg/mL. For the same substance, the MIC ([1]; ISA62-1, MRSA) was 1 µg/mL, the MIC ([1]; ISA73-1, MSSA) was 2 µg/mL and the MIC ([1]; KBSA32, MRSA) was 1 µg/mL. For the same substance, the MIC ([1]; KBSA34, MRSA) was 1 µg/mL, the MIC ([1]; KBSA72, MRSA) was 1 µg/mL and the MIC ([1]; KBSA96, MRSA) was 1 µg/mL. For the same substance, the MIC ([1]; KBSA171, MRSA) was 0.25 µg/mL, the MIC ([1]; KSA24, MRSA) was 1 µg/mL and the MIC ([1]; KSA31, MRSA) was 1 µg/mL. It also gave an MIC ([1]; KSA36, MRSA) of 1 µg/mL, an MIC ([1]; MW2, CA-MRSA) of 0.5 µg/mL and an MIC ([1]; N315, MRSA) of 0.25 µg/mL. The MIC ([1]; NCTC 8325, MSSA) was 0.5 µg/mL, the MIC ([1]; USA300 FPR3757, CA-MRSA) was 1 µg/mL and the MIC ([2]; 99/3700-W, VI-MRSA, The United Kingdom) was 2 µg/mL. For the same substance, the MIC ([2]; 99/3759-V, VI-MRSA, The United Kingdom) was 8 µg/mL, the MIC ([2]; 28160, VI-MRSA, South African Republic) was 4 µg/mL and the MIC ([2]; 98141, VI-MRSA, France) was 4 µg/mL. For the same substance, the MIC ([2]; A7 (JCSC4842), VI-MRSA, Taiwan) was 8 µg/mL, the MIC ([2]; AMC11094, VI-MRSA, Korea) was 8 µg/mL and the MIC ([2]; B7 (JCSC4852), VI-MRSA, Taiwan) was 16 µg/mL. For the same substance, the MIC ([2]; BR1, VI-MRSA, Brazil) was 2 µg/mL, the MIC ([2]; BR2, VI-MRSA, Brazil) was 1 µg/mL and the MIC ([2]; BR3, VI-MRSA, Brazil) was 4 µg/mL. It also gave an MIC ([2]; BR4, VI-MRSA, Brazil) of 8 µg/mL, an MIC ([2]; BR5, VI-MRSA, Brazil) of 4 µg/mL and an MIC ([2]; HIP06297, VI-MRSA, America) of 8 µg/mL. For the same substance, the MIC ([2]; HIP06854, VI-MRSA, America) was 2 µg/mL, the MIC ([2]; HIP07920, VI-MRSA, America) was 2 µg/mL and the MIC ([2]; HIP07930, VI-MRSA, America) was 4 µg/mL. The MIC ([2]; HIP08926, VI-MRSA, America) was 4 µg/mL, the MIC ([2]; HIP09143, VI-MRSA, America) was 4 µg/mL and the MIC ([2]; HIP09313, VI-MRSA, America) was 4 µg/mL. It also gave an MIC ([2]; HIP09433, VI-MRSA, America) of 8 µg/mL, an MIC ([2]; HIP09662, VI-MRSA, America) of 4 µg/mL and an MIC ([2]; HIP09735, VI-MRSA, America) of 4 µg/mL. The MIC ([2]; HIP09737, VI-MSSA, America) was 4 µg/mL, the MIC ([2]; HIP09740, VI-MRSA, America) was 4 µg/mL and the MIC ([2]; HIP10267, VI-MRSA, America) was 4 µg/mL. The MIC ([2]; HIP10540, VI-MRSA, America) was 16 µg/mL, the MIC ([2]; HIP12864, VI-MRSA, America) was 8 µg/mL and the MIC ([2]; HIP13036, VI-MRSA, America) was 4 µg/mL. The MIC ([2]; HIP13057, VI-MRSA, America) was 8 µg/mL, the MIC ([2]; IL (HIP7737), VI-MRSA, America) was 4 µg/mL and the MIC ([2]; JCSC7193, VI-MRSA, Thailand) was 8 µg/mL. It also gave an MIC ([2]; JCSC7195, VI-MRSA, Thailand) of 8 µg/mL, an MIC ([2]; JCSC7203, VI-MRSA, Thailand) of 4 µg/mL and an MIC ([2]; LIM2, VI-MRSA, France) of 8 µg/mL. It also gave an MIC ([2]; LY-1999-01, VI-MSSA, Oman) of 8 µg/mL, an MIC ([2]; LY-1999-03, VI-MRSA, Oman) of 8 µg/mL and an MIC ([2]; MI (HIP5827), VI-MRSA, America) of 8 µg/mL. For the same substance, the MIC ([2]; Mu3, VI-MRSA, Japan) was 8 µg/mL, the MIC ([2]; Mu50, VI-MRSA, Japan) was 16 µg/mL and the MIC ([2]; NJ (HIP5836), VI-MRSA, America) was 8 µg/mL. For the same substance, the MIC ([2]; NRS76, VI-MSSA, America) was 4 µg/mL, the MIC ([2]; NRS79, VI-MRSA, America) was 8 µg/mL and the MIC ([2]; NRS118, VI-MRSA, America) was 8 µg/mL. It also gave an MIC ([2]; NRS126, VI-MRSA, America) of 2 µg/mL, an MIC ([2]; P1V44, VI-MSSA, Belgium) of 16 µg/mL and an MIC ([2]; PC, VI-MRSA, America) of 4 µg/mL. The MIC ([2]; SA MER-S6, VI-MSSA, France) was 8 µg/mL, the MIC ([2]; SA MER-S12, VI-MSSA, France) was 16 µg/mL and the MIC ([2]; SA MER-S20, VI-MSSA, France) was 32 µg/mL.
